Assay results: PubChem BioAssay (NCI)
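A five-concentration, 48-hour dose response in 96-well plates underlies each endpoint, interpolated linearly between surrounding concentrations. Abbreviation: GI50, concentration required for 50% inhibition of growth. TGI is the concentration that stops growth completely.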

Assays:
Test in all cases: NCI anticancer screen, dose series, 48 h; in the data active means GI50 below about 0.43 µM; inactive means the rest
786-0 renal = test system: 786-0 renal
A498 renal = test system: A498 renal
A549 NSCLC = test system: A549 NSCLC
ACHN renal = test system: ACHN renal
BT-549 breast = test system: BT-549 breast
CAKI-1 renal = test system: CAKI-1 renal
CCRF-CEM leukemia = test system: CCRF-CEM leukemia
COLO 205 colon = test system: COLO 205 colon
DU-145 prostate = test system: DU-145 prostate
EKVX NSCLC = test system: EKVX NSCLC
HCC-2998 colon = test system: HCC-2998 colon
HCT-116 colon = test system: HCT-116 colon
HCT-15 colon = test system: HCT-15 colon
HL-60(TB) leukemia = test system: HL-60(TB) leukemia
HOP-62 NSCLC = test system: HOP-62 NSCLC
HOP-92 NSCLC = test system: HOP-92 NSCLC
HS 578T breast = test system: HS 578T breast
HT29 colon = test system: HT29 colon
K-562 leukemia = test system: K-562 leukemia
KM12 colon = test system: KM12 colon
LOX IMVI melanoma = test system: LOX IMVI melanoma
M14 melanoma = test system: M14 melanoma
MALME-3M melanoma = test system: MALME-3M melanoma
MCF7 breast = test system: MCF7 breast
MDA-MB-231 breast = test system: MDA-MB-231 breast
MDA-MB-435 = test system: MDA-MB-435
MOLT-4 leukemia = test system: MOLT-4 leukemia
NCI-H226 lung = test system: NCI-H226 lung
NCI-H23 lung = test system: NCI-H23 lung
NCI-H460 lung = test system: NCI-H460 lung
NCI-H522 lung = test system: NCI-H522 lung
NCI/ADR-RES ovarian = test system: NCI/ADR-RES ovarian
OVCAR-3 ovarian = test system: OVCAR-3 ovarian
OVCAR-4 ovarian = test system: OVCAR-4 ovarian
OVCAR-5 ovarian = test system: OVCAR-5 ovarian
OVCAR-8 ovarian = test system: OVCAR-8 ovarian
PC-3 prostate = test system: PC-3 prostate
RPMI-8226 leukemia = test system: RPMI-8226 leukemia
RXF 393 renal = test system: RXF 393 renal
SF-268 CNS = test system: SF-268 CNS
SF-295 CNS = test system: SF-295 CNS
SF-539 CNS = test system: SF-539 CNS
SK-MEL-2 melanoma = test system: SK-MEL-2 melanoma
SK-MEL-28 melanoma = test system: SK-MEL-28 melanoma
SK-MEL-5 melanoma = test system: SK-MEL-5 melanoma
SK-OV-3 ovarian = test system: SK-OV-3 ovarian
SN12C renal = test system: SN12C renal
SNB-19 CNS = test system: SNB-19 CNS
SNB-75 CNS = test system: SNB-75 CNS
SR leukemia = test system: SR leukemia
SW-620 colon = test system: SW-620 colon
T-47D breast = test system: T-47D breast
TK-10 renal = test system: TK-10 renal
U251 CNS = test system: U251 CNS
UACC-257 melanoma = test system: UACC-257 melanoma
UACC-62 melanoma = test system: UACC-62 melanoma
UO-31 renal = test system: UO-31 renal
IGROV1 ovarian = test system: IGROV1 ovarian

COc1ccc2c(c1)C(=O)c1c-2c(OCCN(C)C)nc2cc(OC)c(OC)cc12
16.3 µM: TGI (SF-268 CNS)
27.5 µM: TGI (TK-10 renal)
30.9 µM: TGI (K-562 leukemia)
9.37 µM: TGI (UO-31 renal)
15.3 µM: TGI (NCI-H460 lung)
19.6 µM: TGI (HCT-116 colon) | TGI (HOP-92 NSCLC)
35.4 µM: TGI (SK-MEL-28 melanoma)
31.6 µM: TGI (CAKI-1 renal)
19.1 µM: TGI (U251 CNS)
0.21 µM: TGI (SF-295 CNS)
18.6 µM: TGI (RXF 393 renal)
34.7 µM: TGI (DU-145 prostate)
13.4 µM: TGI (KM12 colon)
49.9 µM: TGI (HCC-2998 colon)
19.3 µM: TGI (ACHN renal)
42.3 µM: TGI (NCI/ADR-RES ovarian)
3.91 µM: TGI (CCRF-CEM leukemia)
16.9 µM: TGI (SW-620 colon)
12.3 µM: TGI (LOX IMVI melanoma)
15.1 µM: TGI (OVCAR-3 ovarian)
14.4 µM: TGI (SR leukemia)
active: GI50 (CCRF-CEM leukemia) 0.0714 µM | GI50 (MCF7 breast) 0.271 µM | GI50 (MOLT-4 leukemia) 0.197 µM | GI50 (SF-295 CNS) 0.0293 µM
23.6 µM: TGI (HCT-15 colon)
65.9 µM: TGI (PC-3 prostate)
21.5 µM: TGI (A549 NSCLC)
31.5 µM: TGI (SNB-19 CNS)
32 µM: TGI (HOP-62 NSCLC)
35.7 µM: TGI (HS 578T breast)
28.3 µM: TGI (MALME-3M melanoma)
22.9 µM: TGI (NCI-H23 lung)
27.2 µM: TGI (786-0 renal)
14.9 µM: TGI (MCF7 breast)
18.1 µM: TGI (HT29 colon)
inactive: GI50 (786-0 renal) 13 µM | GI50 (A498 renal) 13.2 µM | GI50 (A549 NSCLC) 4.2 µM | GI50 (ACHN renal) 5.21 µM | GI50 (BT-549 breast) 26.5 µM | GI50 (CAKI-1 renal) 3.68 µM | GI50 (COLO 205 colon) 11.5 µM | GI50 (DU-145 prostate) 2.93 µM | GI50 (EKVX NSCLC) 22.6 µM | GI50 (HCC-2998 colon) 8.85 µM | GI50 (HCT-116 colon) 1.08 µM | GI50 (HCT-15 colon) 9.67 µM | GI50 (HL-60(TB) leukemia) 51.6 µM | GI50 (HOP-62 NSCLC) 1.32 µM | GI50 (HOP-92 NSCLC) 3.22 µM | GI50 (HS 578T breast) 12.8 µM | GI50 (HT29 colon) 1.76 µM | GI50 (K-562 leukemia) 5.04 µM | GI50 (KM12 colon) 0.762 µM | GI50 (LOX IMVI melanoma) 1.01 µM | GI50 (M14 melanoma) 18.5 µM | GI50 (MALME-3M melanoma) 12.1 µM | GI50 (MDA-MB-231 breast) 10.1 µM | GI50 (MDA-MB-435) 5.3 µM | GI50 (NCI-H226 lung) 2.95 µM | GI50 (NCI-H23 lung) 9.32 µM | GI50 (NCI-H460 lung) 1.22 µM | GI50 (NCI-H522 lung) 10.6 µM | GI50 (NCI/ADR-RES ovarian) 4.58 µM | GI50 (OVCAR-3 ovarian) 2.23 µM | GI50 (OVCAR-4 ovarian) 2.81 µM | GI50 (OVCAR-5 ovarian) 23.7 µM | GI50 (OVCAR-8 ovarian) 1.62 µM | GI50 (PC-3 prostate) 3.76 µM | GI50 (RPMI-8226 leukemia) 1.26 µM | GI50 (RXF 393 renal) 4.48 µM | GI50 (SF-268 CNS) 0.731 µM | GI50 (SF-539 CNS) 10.6 µM | GI50 (SK-MEL-2 melanoma) > 100 µM | GI50 (SK-MEL-28 melanoma) 18.9 µM | GI50 (SK-MEL-5 melanoma) 32.1 µM | GI50 (SK-OV-3 ovarian) 18.9 µM | GI50 (SN12C renal) 2.72 µM | GI50 (SNB-19 CNS) 2.28 µM | GI50 (SNB-75 CNS) 8.65 µM | GI50 (SR leukemia) 1.22 µM | GI50 (SW-620 colon) 0.476 µM | GI50 (T-47D breast) > 100 µM | GI50 (TK-10 renal) 13.9 µM | GI50 (U251 CNS) 3.08 µM | GI50 (UACC-257 melanoma) > 100 µM | GI50 (UACC-62 melanoma) 51.5 µM | GI50 (UO-31 renal) 0.658 µM
99.1 µM: TGI (A498 renal)
26.1 µM: TGI (SNB-75 CNS)
55.9 µM: TGI (OVCAR-5 ovarian)
> 100 µM: TGI (BT-549 breast) | TGI (COLO 205 colon) | TGI (EKVX NSCLC) | TGI (HL-60(TB) leukemia) | TGI (MDA-MB-435) | TGI (MOLT-4 leukemia) | TGI (NCI-H522 lung) | TGI (OVCAR-4 ovarian) | TGI (OVCAR-8 ovarian) | TGI (SK-MEL-2 melanoma) | TGI (SK-MEL-5 melanoma) | TGI (SK-OV-3 ovarian) | TGI (SN12C renal) | TGI (T-47D breast) | TGI (UACC-257 melanoma) | TGI (UACC-62 melanoma)
5.23 µM: TGI (RPMI-8226 leukemia)
24.9 µM: TGI (SF-539 CNS)
22.1 µM: TGI (MDA-MB-231 breast) | TGI (NCI-H226 lung)
61.6 µM: TGI (M14 melanoma)

COc1ccc(COCC[C@H](C)OC2OC(CO)C(O)C(O)C2O)cc1 (stereo partly specified)
> 100 µM: TGI (786-0 renal) | TGI (A498 renal) | TGI (A549 NSCLC) | TGI (ACHN renal) | TGI (BT-549 breast) | TGI (CAKI-1 renal) | TGI (CCRF-CEM leukemia) | TGI (COLO 205 colon) | TGI (DU-145 prostate) | TGI (EKVX NSCLC) | TGI (HCC-2998 colon) | TGI (HCT-116 colon) | TGI (HCT-15 colon) | TGI (HL-60(TB) leukemia) | TGI (HOP-62 NSCLC) | TGI (HOP-92 NSCLC) | TGI (HS 578T breast) | TGI (HT29 colon) | TGI (IGROV1 ovarian) | TGI (K-562 leukemia) | TGI (KM12 colon) | TGI (LOX IMVI melanoma) | TGI (M14 melanoma) | TGI (MCF7 breast) | TGI (MDA-MB-231 breast) | TGI (MDA-MB-435) | TGI (MOLT-4 leukemia) | TGI (NCI-H226 lung) | TGI (NCI-H23 lung) | TGI (NCI-H460 lung) | TGI (NCI-H522 lung) | TGI (NCI/ADR-RES ovarian) | TGI (OVCAR-3 ovarian) | TGI (OVCAR-4 ovarian) | TGI (OVCAR-5 ovarian) | TGI (OVCAR-8 ovarian) | TGI (PC-3 prostate) | TGI (RPMI-8226 leukemia) | TGI (RXF 393 renal) | TGI (SF-268 CNS) | TGI (SF-295 CNS) | TGI (SF-539 CNS) | TGI (SK-MEL-2 melanoma) | TGI (SK-MEL-28 melanoma) | TGI (SK-MEL-5 melanoma) | TGI (SK-OV-3 ovarian) | TGI (SN12C renal) | TGI (SNB-19 CNS) | TGI (SNB-75 CNS) | TGI (SR leukemia) | TGI (SW-620 colon) | TGI (T-47D breast) | TGI (TK-10 renal) | TGI (U251 CNS) | TGI (UACC-257 melanoma) | TGI (UACC-62 melanoma) | TGI (UO-31 renal)
